# Activity calls are given as the source filed them.
# What was measured:
# Caspase-8 = Caspase-8 (Homo sapiens, UniProt Q14790); test: caspase-8 inhibition counter-screen, dose response, selectivity assay for caspase-6 inhibitor project, biochemical, Z-IETD-R110 fluorescence, cherry-picked samples (AID 743294)
# Caspase-6 = target: T1, Caspase-6 (Homo sapiens, UniProt P55212); test: human caspase-6 inhibitors, dose response, biochemical, VEID-R110 fluorescence, cherry-pick (AID 720632)
# T1 sequence (P55212 whole entry): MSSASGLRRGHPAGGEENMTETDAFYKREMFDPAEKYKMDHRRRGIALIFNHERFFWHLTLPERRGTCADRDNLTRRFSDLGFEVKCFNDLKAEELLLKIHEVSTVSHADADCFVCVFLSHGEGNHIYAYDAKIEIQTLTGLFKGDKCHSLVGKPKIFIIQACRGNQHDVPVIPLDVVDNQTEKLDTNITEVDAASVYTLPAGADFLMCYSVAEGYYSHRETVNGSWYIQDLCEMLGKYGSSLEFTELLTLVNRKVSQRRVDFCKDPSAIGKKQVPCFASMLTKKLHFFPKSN
# Caspase-7 = Caspase-7 (Homo sapiens, UniProt P55210); test: human caspase-7 inhibitors, dose response, selectivity assay for caspase-6 inhibitor project, biochemical, DEVD-R110 fluorescence, cherry-pick (AID 743295)
# [1] = target: T2, Apoptotic protease-activating factor 1 (Homo sapiens, UniProt O14727); type: functional
# T2 sequence (O14727 whole entry): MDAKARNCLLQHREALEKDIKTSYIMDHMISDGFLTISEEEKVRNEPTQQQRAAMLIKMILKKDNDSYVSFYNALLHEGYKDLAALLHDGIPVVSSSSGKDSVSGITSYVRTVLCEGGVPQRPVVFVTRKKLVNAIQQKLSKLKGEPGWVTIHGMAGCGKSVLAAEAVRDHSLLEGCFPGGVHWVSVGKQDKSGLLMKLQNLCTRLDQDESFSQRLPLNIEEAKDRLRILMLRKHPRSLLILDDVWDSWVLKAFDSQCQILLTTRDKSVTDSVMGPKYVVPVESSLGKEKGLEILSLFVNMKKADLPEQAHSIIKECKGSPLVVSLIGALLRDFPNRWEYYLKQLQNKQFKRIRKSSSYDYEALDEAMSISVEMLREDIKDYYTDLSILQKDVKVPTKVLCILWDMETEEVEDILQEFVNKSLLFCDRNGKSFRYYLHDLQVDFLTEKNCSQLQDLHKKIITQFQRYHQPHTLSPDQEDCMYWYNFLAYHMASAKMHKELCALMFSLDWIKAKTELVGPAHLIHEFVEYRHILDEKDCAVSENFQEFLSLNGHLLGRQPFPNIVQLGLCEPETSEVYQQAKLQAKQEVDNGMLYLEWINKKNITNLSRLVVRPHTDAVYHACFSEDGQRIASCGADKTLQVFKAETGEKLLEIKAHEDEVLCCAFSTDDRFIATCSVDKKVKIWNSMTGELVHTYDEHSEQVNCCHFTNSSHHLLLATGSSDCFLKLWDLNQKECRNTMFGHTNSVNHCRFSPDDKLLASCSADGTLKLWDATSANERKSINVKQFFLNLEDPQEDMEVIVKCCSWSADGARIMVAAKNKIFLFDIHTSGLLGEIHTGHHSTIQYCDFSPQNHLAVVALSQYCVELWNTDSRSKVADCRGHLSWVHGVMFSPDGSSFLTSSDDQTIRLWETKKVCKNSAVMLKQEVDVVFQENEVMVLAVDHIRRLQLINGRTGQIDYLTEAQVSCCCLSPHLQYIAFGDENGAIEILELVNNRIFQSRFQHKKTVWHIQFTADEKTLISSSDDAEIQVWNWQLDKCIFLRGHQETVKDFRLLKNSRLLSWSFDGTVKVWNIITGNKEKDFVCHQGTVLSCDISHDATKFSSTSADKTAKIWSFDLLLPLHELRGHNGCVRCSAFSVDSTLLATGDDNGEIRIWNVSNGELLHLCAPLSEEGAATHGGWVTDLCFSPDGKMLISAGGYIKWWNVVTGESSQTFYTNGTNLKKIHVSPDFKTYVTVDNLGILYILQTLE
# Caspase-9 = Caspase-9 (Homo sapiens, UniProt P55211); test: caspase-9 enzyme inhibition, dose response, selectivity assay for caspase-6 inhibitor project, biochemical, fluorescence, plate reader, cherry-picked samples (AID 743293)
# [2] = target: T3, Mannose-6-phosphate isomerase (Homo sapiens, UniProt P34949); test: human PMI inhibitors, high substrate, primary screen, biochemical, fluorescence intensity, high mannose 6-phosphate (AID 1220)
# T3 sequence (P34949 whole entry): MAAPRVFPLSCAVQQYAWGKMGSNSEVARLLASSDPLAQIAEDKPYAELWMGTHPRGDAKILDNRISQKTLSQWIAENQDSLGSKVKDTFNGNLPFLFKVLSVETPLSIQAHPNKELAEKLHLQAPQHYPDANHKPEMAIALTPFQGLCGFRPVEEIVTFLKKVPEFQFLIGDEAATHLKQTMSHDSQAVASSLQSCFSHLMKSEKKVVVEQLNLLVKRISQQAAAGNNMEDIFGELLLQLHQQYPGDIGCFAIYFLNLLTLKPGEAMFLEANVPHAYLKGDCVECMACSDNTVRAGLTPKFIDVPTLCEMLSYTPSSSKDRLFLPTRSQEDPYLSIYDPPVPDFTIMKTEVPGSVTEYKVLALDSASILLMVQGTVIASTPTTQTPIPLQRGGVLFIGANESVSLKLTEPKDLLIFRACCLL
# Genome polyprotein = Genome polyprotein (dengue virus type 2, UniProt P29990); test: Dengue-2 NS5 methyltransferase inhibitors, primary screen, biochemical, confirmation dose response (AID 588689); type: functional
# [3] = target: RNA-editing ligase 1, mitochondrial (Trypanosoma brucei brucei, UniProt P86926); test: TbREL1 ligase inhibitors, dose response, biochemical, fluorescence, Trypanosoma brucei (AID 1117295); type: functional
# [4] = target: Tyrosyl-DNA phosphodiesterase 2 (Homo sapiens, UniProt O95551); test: human TDP2 enzyme inhibitors, dose response, biochemical, epi absorbance, IC50 (AID 743297)
# [5] = target: Glutathione-S-transferase (Schistosoma japonicum, UniProt Q26513); test: biotin-GST/anti-GST TR-FRET signal inhibitors, dose response, artefact control for Vif-APOBEC3G degradation inhibitor project, biochemical (AID 1117362); type: functional
# [6] = target: Induced myeloid leukemia cell differentiation protein Mcl-1 (Homo sapiens, UniProt Q07820); type: functional
# Estrogen receptor = target: T4, Estrogen receptor (Homo sapiens, UniProt P03372); test: potentiators of ERα–SRC-1 coactivator binding, dose response, biochemical, TR-FRET, ERα LBD (AID 737)
# T4 sequence (P03372 whole entry): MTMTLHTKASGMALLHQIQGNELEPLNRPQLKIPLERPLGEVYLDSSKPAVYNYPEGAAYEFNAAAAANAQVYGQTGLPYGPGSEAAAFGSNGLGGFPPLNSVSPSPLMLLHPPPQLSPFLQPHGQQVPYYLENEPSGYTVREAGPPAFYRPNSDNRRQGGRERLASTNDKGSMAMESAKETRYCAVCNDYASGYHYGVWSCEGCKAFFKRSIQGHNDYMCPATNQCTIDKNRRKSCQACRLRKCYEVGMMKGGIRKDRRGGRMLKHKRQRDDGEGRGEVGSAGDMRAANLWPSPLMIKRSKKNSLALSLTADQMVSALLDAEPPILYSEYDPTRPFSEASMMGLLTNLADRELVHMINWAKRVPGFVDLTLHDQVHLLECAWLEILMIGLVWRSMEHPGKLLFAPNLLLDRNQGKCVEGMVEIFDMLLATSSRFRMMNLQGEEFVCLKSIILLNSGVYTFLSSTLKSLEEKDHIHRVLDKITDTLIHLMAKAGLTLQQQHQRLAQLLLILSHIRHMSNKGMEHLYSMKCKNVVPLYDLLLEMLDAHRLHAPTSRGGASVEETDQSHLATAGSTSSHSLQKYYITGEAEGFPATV
# cells [7] = test: cells
# HT-1080 = test: cytotoxicity in HT1080 fibrosarcoma cells, cell-based, fluorescence readout (AID 620); type: functional; settings: Homo sapiens
# [8] = target: Protein-tyrosine kinase 2-beta (Homo sapiens, UniProt Q14289);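 further: potency of inhibitors of PYK2 kinase phosphorylation of poly-GT substrate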
# [9] = target: T5, Oxysterols receptor LXR-beta (Homo sapiens, UniProt P55055); type: functional, cell-based;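 further: Cell-based luminescence dose-response assay of agonist activity at LXR, run as a confirmatory counterscreen to a daf-12 agonist screen; agonist potency from rising luciferase signal of a Gal4-LXR reporter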
# T5 sequence (P55055 whole entry): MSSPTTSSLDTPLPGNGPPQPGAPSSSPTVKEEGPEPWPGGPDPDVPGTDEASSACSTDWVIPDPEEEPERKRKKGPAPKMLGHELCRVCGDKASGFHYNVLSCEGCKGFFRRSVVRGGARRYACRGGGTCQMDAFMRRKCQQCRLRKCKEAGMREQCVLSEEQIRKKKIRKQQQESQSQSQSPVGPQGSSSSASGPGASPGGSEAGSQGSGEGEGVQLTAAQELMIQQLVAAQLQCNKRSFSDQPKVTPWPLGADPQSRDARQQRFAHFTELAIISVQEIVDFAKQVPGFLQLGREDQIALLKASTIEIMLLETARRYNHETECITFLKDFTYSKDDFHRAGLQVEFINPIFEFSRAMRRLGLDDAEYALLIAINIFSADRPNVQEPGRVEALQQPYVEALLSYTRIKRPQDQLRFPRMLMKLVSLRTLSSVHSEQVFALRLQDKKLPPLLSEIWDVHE
# [10] = target: T5, Oxysterols receptor LXR-beta; test: LXR agonists, Gal4 luciferase reporter, dose response, counter-screen for ssDAF-12 agonist project, cell-based, luminescence, HEK293, S. stercoralis campaign (AID 720737); type: functional; settings: read-out: IC50 (the source's name)
# [11] = Luminescence-based cell-based high throughput dose response assay to identify activators of the DAF-12 from the parasite S. stercoralis (ssDAF-12).; type: functional
# [12] = target: Luciferin 4-monooxygenase (Photinus pyralis, UniProt P08659); test: Counter Screen for Luciferase-based Assay Positives. [Related pubchem assays: 620, 618, 411 ]
# Fibrinogen beta chain [13] = target: T6, Fibrinogen beta chain (Homo sapiens, UniProt P02675); test: Fluorescence polarization-based biochemical high throughput dose response assay to identify inhibitors that disrupt the binding of a cyclic peptide (Tn7) to the fibrin proteolytic product D-Dimer and fragment E complex [DD(E )].
# Fibrinogen beta chain [14] = target: T6, Fibrinogen beta chain; test: Fluorescence polarization-based biochemical high throughput dose response assay to identify inhibitors that disrupt the binding of a cyclic peptide (Tn6) to the fibrin proteolytic product D-Dimer and fragment E complex [DD(E )].
# [15] = TRPM1 promoter luciferase reporter signal decrease, dose response, MITF inhibitor project, cell-based, SK-MEL-5, dry powder, set 9 (AID 651588); type: functional
# [16] = MITF Orthogonal Assay: SK-MEL-5 CTG Assay Measured in Cell-Based System Using Plate Reader - 2084-02_Inhibitor_Dose_DryPowder_Activity_Set7.; type: functional
# [17] = MITF: Counter assay: A375 proliferation Measured in Cell-Based System Using Plate Reader - 2084-03_Inhibitor_Dose_DryPowder_Activity_Set8.; type: functional; settings: A-375
# [18] = TRPM1 promoter luciferase reporter signal decrease, dose response, MITF inhibitor project, cell-based, SK-MEL-5, dry powder, set 8 (AID 624430); type: functional
# [19] = MITF Orthogonal Assay: MALME3 CTG Assay Measured in Cell-Based System Using Plate Reader - 2084-04_Inhibitor_Dose_DryPowder_Activity_Set6.; type: functional; settings: MALME-3
# [20] = A375 melanoma cell viability loss, dose response, counter-screen for MITF modulator project, CellTiter-Glo luminescence, dry powder, set 9 (AID 651591); type: functional, cell-based; settings: A-375
# [21] = MALME3 melanoma cell viability reduction, dose response, orthogonal assay for MITF inhibitor project, CellTiter-Glo luminescence, dry powder, set 5 (AID 651584); type: functional, cell-based; settings: MALME-3
# [22] = SK-MEL-5 parental cell viability reduction, dose response, orthogonal assay for MITF inhibitor project, CellTiter-Glo luminescence, dry powder, set 8 (AID 651586); type: functional, cell-based
# cells [23] = settings: HEK293
# [24] = target: Metabotropic glutamate receptor 7 (Homo sapiens, UniProt Q14831); test: mGlu7 positive allosteric modulators, dose response, cell-based, calcium mobilization, Galpha15 (AID 743384); type: functional
# [25] = Dose-response inhibition of insulin secretion in a rat insulinoma line at 5 mM glucose (AID 1117331); type: functional, cell-based; settings: INS-1E
# T6 sequence (P02675 whole entry, the tested form may be a part): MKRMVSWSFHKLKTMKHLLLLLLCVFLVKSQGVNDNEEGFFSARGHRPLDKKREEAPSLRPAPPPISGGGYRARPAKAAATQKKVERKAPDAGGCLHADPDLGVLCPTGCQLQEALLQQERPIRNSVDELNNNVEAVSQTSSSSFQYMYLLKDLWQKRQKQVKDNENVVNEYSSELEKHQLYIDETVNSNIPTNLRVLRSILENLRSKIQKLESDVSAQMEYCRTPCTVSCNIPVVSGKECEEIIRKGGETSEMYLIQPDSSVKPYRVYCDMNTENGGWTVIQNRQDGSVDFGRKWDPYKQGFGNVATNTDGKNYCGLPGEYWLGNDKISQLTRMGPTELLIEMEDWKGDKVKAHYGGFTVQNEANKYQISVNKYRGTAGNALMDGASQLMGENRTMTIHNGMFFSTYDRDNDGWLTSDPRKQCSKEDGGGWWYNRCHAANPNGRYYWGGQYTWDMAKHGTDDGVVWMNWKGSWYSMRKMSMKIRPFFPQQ
# Sequence of Caspase-7 (P55210 24-198 limits assumed): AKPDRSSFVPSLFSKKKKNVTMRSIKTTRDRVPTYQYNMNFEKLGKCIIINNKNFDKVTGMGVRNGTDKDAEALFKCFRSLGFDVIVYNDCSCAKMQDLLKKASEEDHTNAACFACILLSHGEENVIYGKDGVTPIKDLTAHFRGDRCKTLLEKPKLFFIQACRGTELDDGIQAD
# Sequence of Caspase-7 (P55210 207-303 limits assumed): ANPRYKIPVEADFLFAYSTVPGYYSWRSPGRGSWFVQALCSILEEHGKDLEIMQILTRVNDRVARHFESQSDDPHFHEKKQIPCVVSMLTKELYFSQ
# Sequence of Tyrosyl-DNA phosphodiesterase 2 (O95551 whole entry): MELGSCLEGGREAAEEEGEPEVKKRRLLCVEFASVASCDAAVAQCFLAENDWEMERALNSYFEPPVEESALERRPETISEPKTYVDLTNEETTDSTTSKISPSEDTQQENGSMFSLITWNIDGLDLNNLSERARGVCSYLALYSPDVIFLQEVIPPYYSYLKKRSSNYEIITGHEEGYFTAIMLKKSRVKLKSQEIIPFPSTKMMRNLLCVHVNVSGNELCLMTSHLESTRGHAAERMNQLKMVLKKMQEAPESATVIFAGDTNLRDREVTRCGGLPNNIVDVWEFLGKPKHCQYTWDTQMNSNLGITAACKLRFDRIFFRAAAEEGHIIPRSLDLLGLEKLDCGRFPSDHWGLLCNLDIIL
# Sequence of Genome polyprotein (P29990 2492-3391 limits assumed): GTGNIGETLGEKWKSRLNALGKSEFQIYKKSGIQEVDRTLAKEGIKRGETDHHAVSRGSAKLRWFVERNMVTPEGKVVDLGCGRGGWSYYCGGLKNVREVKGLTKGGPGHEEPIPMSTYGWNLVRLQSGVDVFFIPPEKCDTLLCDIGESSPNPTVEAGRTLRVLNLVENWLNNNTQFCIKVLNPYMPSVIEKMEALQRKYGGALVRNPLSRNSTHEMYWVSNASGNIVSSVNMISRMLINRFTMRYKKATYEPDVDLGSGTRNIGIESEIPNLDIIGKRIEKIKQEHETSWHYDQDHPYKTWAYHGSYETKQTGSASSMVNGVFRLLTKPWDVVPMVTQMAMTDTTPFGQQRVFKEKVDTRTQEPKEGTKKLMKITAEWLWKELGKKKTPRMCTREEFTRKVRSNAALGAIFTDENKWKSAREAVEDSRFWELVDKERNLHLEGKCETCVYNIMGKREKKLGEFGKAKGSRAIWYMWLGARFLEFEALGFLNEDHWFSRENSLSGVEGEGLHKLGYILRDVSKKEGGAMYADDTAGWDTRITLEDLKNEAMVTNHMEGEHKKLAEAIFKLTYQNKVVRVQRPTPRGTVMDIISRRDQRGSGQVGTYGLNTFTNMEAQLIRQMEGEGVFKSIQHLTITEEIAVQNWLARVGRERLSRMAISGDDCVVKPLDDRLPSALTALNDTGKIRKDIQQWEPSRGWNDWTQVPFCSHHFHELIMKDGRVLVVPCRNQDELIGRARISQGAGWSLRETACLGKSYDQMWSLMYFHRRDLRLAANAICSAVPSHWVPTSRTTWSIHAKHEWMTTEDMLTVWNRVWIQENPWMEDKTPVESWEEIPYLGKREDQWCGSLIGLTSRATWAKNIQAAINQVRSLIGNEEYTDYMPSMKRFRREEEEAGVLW
# Sequence of Luciferin 4-monooxygenase (P08659 whole entry, the tested form may be a part): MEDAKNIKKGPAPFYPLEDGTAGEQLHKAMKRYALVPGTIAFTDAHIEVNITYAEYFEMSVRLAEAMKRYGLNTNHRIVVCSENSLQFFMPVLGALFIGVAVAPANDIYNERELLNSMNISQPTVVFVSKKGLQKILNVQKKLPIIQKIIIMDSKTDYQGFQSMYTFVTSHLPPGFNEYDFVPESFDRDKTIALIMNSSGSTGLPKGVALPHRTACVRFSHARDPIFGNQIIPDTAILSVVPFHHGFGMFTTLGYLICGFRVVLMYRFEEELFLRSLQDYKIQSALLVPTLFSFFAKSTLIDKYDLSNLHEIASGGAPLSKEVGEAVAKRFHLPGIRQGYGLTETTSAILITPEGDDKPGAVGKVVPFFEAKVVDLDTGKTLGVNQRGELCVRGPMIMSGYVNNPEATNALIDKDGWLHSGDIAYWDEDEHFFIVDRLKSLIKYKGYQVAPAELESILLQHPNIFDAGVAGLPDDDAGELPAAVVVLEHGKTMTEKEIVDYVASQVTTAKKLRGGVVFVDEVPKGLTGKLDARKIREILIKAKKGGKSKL
# Sequence of Caspase-8 (Q14790 217-374 limits assumed): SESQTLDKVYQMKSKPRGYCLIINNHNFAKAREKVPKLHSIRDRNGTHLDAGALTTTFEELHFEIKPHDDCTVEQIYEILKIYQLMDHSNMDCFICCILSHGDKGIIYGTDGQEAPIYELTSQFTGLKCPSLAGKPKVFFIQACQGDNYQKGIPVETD
# Sequence of Caspase-8 (Q14790 385-479 limits assumed): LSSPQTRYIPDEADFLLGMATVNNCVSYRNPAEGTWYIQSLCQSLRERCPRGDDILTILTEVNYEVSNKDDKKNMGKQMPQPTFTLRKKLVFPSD
# Sequence of RNA-editing ligase 1, mitochondrial (P86926 whole entry): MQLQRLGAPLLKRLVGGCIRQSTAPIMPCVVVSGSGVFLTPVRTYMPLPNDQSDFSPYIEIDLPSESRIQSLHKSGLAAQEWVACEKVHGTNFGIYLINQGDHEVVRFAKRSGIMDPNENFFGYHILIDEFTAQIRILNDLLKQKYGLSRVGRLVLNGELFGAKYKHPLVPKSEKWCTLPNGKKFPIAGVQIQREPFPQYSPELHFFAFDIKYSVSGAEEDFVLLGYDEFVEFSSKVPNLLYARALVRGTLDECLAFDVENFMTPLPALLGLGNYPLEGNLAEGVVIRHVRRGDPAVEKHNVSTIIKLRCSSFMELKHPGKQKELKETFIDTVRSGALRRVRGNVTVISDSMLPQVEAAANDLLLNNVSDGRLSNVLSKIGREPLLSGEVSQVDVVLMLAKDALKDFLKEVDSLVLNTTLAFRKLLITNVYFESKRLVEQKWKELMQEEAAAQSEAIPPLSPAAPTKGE
# Sequence of Caspase-9 (P55211 1-315 limits assumed): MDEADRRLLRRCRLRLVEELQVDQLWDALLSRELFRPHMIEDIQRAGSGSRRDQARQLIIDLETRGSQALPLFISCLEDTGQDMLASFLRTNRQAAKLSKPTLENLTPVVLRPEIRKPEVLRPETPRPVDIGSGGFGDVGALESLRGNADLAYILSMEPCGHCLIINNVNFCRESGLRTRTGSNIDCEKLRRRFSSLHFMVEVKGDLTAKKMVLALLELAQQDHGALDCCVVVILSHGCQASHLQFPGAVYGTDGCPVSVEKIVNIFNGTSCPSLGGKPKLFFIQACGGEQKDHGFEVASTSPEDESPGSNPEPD
# Sequence of Caspase-9 (P55211 331-416 limits assumed): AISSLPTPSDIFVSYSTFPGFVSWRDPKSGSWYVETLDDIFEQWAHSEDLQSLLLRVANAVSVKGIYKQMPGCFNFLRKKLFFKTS
# Sequence of Induced myeloid leukemia cell differentiation protein Mcl-1 (Q07820 whole entry, the tested form may be a part): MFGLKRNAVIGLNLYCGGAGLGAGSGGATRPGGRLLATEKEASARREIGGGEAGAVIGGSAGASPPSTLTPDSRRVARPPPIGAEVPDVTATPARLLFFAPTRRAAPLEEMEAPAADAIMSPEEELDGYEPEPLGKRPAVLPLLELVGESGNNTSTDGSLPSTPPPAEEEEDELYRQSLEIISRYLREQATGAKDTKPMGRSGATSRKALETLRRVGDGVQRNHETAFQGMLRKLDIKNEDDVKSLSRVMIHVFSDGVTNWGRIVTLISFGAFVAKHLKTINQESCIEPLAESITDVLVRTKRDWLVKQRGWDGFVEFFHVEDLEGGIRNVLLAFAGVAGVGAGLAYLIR
# Sequence of Glutathione-S-transferase (Q26513 whole entry): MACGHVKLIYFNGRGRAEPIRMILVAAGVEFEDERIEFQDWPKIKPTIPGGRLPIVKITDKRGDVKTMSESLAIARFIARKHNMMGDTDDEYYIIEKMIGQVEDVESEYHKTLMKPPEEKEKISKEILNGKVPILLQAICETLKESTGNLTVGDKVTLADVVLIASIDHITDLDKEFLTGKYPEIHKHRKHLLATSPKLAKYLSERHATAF
smiles,measurement,setting,value
CCOc1c(O)ccc(/C=C2\SC(=S)NC2=O)c1[N+](=O)[O-],AC50,Caspase-8,> 70 µM (inactive)
same,AC50,Caspase-6,4.1 µM (active)
same,AC50,Caspase-7,25.5 µM (active)
same,IC50,[1],15.8 µM (active)
same,AC50,Caspase-9,53.6 µM (active)
same,IC50,[2],> 50 µM (not active)
O=C(NCCCO)c1ccc2nc(-c3ccco3)c(-c3ccco3)nc2c1,IC50,Genome polyprotein,86.2 µM (active)
same,IC50,[3],28.4 µM (inactive)
same,IC50,[4],> 128 µM (inactive)
same,IC50,[5],> 100 µM (active)
same,AC50,Caspase-6,13.1 µM (active)
same,IC50,[6],3.45 µM (not active)
O=C1C(c2ccnc3ccccc23)=C(O)c2ccccc21,EC50,Estrogen receptor,6.74 µM (active)
same,EC50,cells [7],> 67.5 µM (inactive)
same,EC50,HT-1080,> 50 µM (not active)
same,IC50,[8],3.11 µM (active)
same,EC50,[9],> 67.5 µM (inactive)
same,EC50,[10],> 67.5 µM (inactive)
same,IC50,[11],> 67.5 µM (inactive)
same,EC50,[12],0.78 µM (active)
O=C(COC(=O)c1cc(-c2cccc3ccccc23)nc2ccccc12)NC1CCS(=O)(=O)C1 (stereo not drawn),IC50,Fibrinogen beta chain [13],> 83.3 µM (inactive)
same,IC50,Fibrinogen beta chain [14],> 83.3 µM (inactive)
O=C1C(Nc2cccc(Cl)c2)=C(N2CCCC2)C(=O)c2ccccc21,AC50,[15],46.8 µM (active)
same,AC50,[16],5.52 µM (active)
same,AC50,[17],> 70 µM (inactive)
same,AC50,[18],8.39 µM (active)
same,AC50,[19],> 70 µM (inactive)
same,AC50,[20],> 70 µM (inactive)
same,AC50,[21],> 70 µM (inactive)
same,AC50,[22],> 70 µM (inactive)
COc1cc(C)ccc1OCCn1cnc2ccccc21,AC50,cells [23],> 52 µM (inactive)
CC(=O)Nc1ccc(SCC(=O)c2cc(C)n(-c3ccc(S(N)(=O)=O)cc3)c2C)cc1,EC50,[24],10 µM (active)
Nc1cc(N2CCCCC2)nc(N)[n+]1[O-] [MINOXIDIL],IC50,[25],> 33.3 µM (inactive)
